From patent US6113896A, “Pharmaceutical compositions containing ecotin and homologs thereof” (priority 1994, dated 2000)

Key:
FXa = experiment: Ecotin·FXa dissociation rate constant (HLE trap); format: biochemical, human; settings: for koff (values in parenthesis): calculated from (Ki)·(kon); for koff: measured in presence of excess HLE to trap free ecotin
Description: Determination of FXa dissociation rate constant The dissociation rate constant of the ecotin.cndot.FXa complex was measured using HLE to trap the free ecotin released from the complex. FXa (10 μM) was incubated for 1 h in TNCT buffer in the presence and absence of ecotin (12.5 μM) and diluted 1000-fold into TNCT buffer with and without HLE (500 nM). Aliquots (180 μl ) were removed at various times and initial rates of free FXa were measured at 405 nm with 20 μl of 5 mM Spectrozyme fXa. The product curve (free FXa versus time) was fit to equation 6; the value for koff was determined by nonlinear regression analysis.
To measure the dissociation rate constant of ecotin from FXa, the complex was diluted 1000-fold into buffer containing a 50-fold excess of HLE to trap the free ecotin and prevent reassociation. In the absence of HLE, reassociation of ecotin with FXa was so rapid that free FXa was barely detectible (FIG. 4B). Progress of dissociation was monitored as the increase in hydrolysis rate of Spectrozyme fXa resulting from the increasing free FXa with time. Because HLE prevented reassociation the rate of dissociation of the E·I complex is given by equation (5): [formula] which upon integration gives equation (6): […]
where [E] is the free [FXa] at any time t, [E.cndot.I]0 is the concentration of the complex at time zero, and koff is the first order dissociation rate constant. The time dependent E·I complex dissociation curve fit to equation (6) by nonlinear regression analysis is shown in FIG. 4B; the dissociation rate constant for ecotin tested is shown above in Table I.

human FXIIa = experiment: Equilibrium inhibition constant with Factor XIIa; format: biochemical; settings: apparent value, 0.5 mM S2302
Description: Determination of Equilibrium Inhibition Constants Apparent Ki values (Ki *) for the inhibition of the enzymes tested by ecotin and mutants were measured as follows. All reactions were performed at 25° C. Stock solutions of trypsin were quantitated by active site burst titration with MUGB as previously described (Jameson, G. W. et al., Biochem. J. 131:107-117 [1973]) using a Fluoroskan II plate reader at excitation wavelength of 355 nm and emission wavelength of 460 nm. Data was collected on a Macintosh SE20 using either Delta Soft II Fl v3.31 software (BioMetallics). Active site titrated trypsin was then used to quantitate ecotin active sites using BAPA as the substrate; a stoichiometry of 1:1 was assumed (Chung, C. H. et al., supra). Factor Xa, Factor XIIa, plasma kallikrein, or HLE were then quantitated by active site titration using ecotin as a standard, again assuming 1:1 stoichiometry. In addition, the concentration of HLE was quantitated by methods previously described using a calibrated stock of α1 -proteinase inhibitor to titrate the HLE active sites (Beatty, K. et al., J. Biol. Chem. 255:3931-3934 [1980]); the same HLE active site concentration was determined using both ecotin and α1 -proteinase inhibitor. […]

bovine trypsin = experiment: Specificity assay, bovine trypsin; format: biochemical; settings: for Percent Activity of Trypsin: 100 nM inhibitor, ~1 h, 10 nM enzyme; for inhibition of bovine trypsin, in words: text statement
Description: (§1) Specificity Assays The following assays were used to test the specificity of ecotin and the M84K and M84R mutants against various proteases. Ecotin, M84K, M84R (100 nM each), or a control blank were incubated at room temperature for ~1 h with each enzyme. The enzymes tested (enzyme concentration, buffer, substrate) were FXa (1.2 nM, Buffer A, 0.7 mM Spectrozyme fXa), thrombin (3.7 nM, Buffer A, 0.7 mM S2366), TF.cndot.FVIIa (12.0 nM, Buffer B, 0.7 mM S2366), FXIa (1.2 nM, Buffer A containing 1 mg/ml BSA, 0.7 mM S2366), activated protein C (4.3 nM, Buffer A, 0.7 mM S2366), plasmin (15 nM, Buffer A, 1 mM S2251), single chain t-PA (15 nM, Buffer A, 2.5 mM S2288), Factor XIIa (10 nM, Buffer A, 0.5 mM S2302, plasma kallikrein (10 nM, Buffer A, 0.5 mM S2302), HLE (17 nM, 0.1 M Tris, pH 7.5, 0.5 M NaCl and 0.005 % Triton X-100, 0.42 mM MeOSuc-AAPV-pNA) (SEQ ID NO:9), bovine trypsin (10 nM, Buffer A, 0.25 mM Spectrozyme fXa), and bovine chymotrypsin (10 nM, Buffer A, 1 mM Suc-AAPF-pNA) (SEQ ID NO:10). Buffer A contains 50 mM Tris, pH 7.5, 100 mM NaCl, 2 mM CaCl2 and 0.005% Triton X-100. Buffer B contains 50 mM Tris, pH 7.5, 100 mM NaCl, 10 mM CaCl2, 0.5% BSA, 60 nM TF1-243,and 1 mM CHAPS. The initial change in absorbance at 405 nm was monitored after addition of substrate. Controls lacking inhibitor and/or enzyme were also assayed to assess the uninhibited rates and the background substrate hydrolysis rates, respectively.

plasma kallikrein = experiment: Specificity assay, plasma kallikrein; format: biochemical, human; settings: for Percent Activity of Kallikrein: 100 nM inhibitor, ~1 h, 10 nM enzyme
Description: as §1

Substance	half-life of ecotin·FXa complex in vitro (FXa)	koff (values in parenthesis) (FXa)	koff (FXa)	koff (FXa; listed as Wild type)	koff (FXa; listed as ecotin)	Ki (human FXIIa)	Percent Activity of Trypsin (bovine trypsin)	Percent Activity of Kallikrein (plasma kallikrein)	inhibition of plasma kallikrein, in words (plasma kallikrein; text statement)	inhibition of bovine trypsin, in words (bovine trypsin)	inhibition of plasma kallikrein, in words (plasma kallikrein; listed as P1 Lys mutant)	inhibition of plasma kallikrein, in words (plasma kallikrein; listed as P1 Arg mutant)
Ecotin: E. coli periplasmic protein having the 142 amino acid residue sequence reported by McGrath et al.; recombinant, P1 Met84	ca. 3 h	2.2e-05 s⁻¹	6.5e-05 s⁻¹	6.5e-05 s⁻¹	6.5e-05 s⁻¹	0.124 ± 0.026 nM	0%	0%	potently inhibited	–	–	–
M84K	–	4.5e-06 s⁻¹	–	–	–	–	0%	2%	still potently inhibited	significantly inhibited	significantly inhibited	–
M84R	–	1e-06 s⁻¹	–	–	–	–	0%	1%	still potently inhibited	significantly inhibited	–	significantly inhibited
